Laboratory results as given in ChEMBL document CHEMBL1201862, “PubChem BioAssay data set” (2004).
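Cells were grown in 96-well plates and exposed to each compound for 48 hours at five concentrations; endpoints were interpolated linearly between bracketing concentrations, or set to the highest concentration if not reached. GI50 = concentration required for 50% inhibition of growth.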 Calls of active or inactive are those of the source. Cut-off read from the data, not from the text of the source: active = GI50 up to about 1.1 µM and inactive = higher.

Assays:
Test in all cases: NCI anticancer screen, dose series, 48 h
HL-60 = tested on: HL-60
HOP-92 = tested on: HOP-92
OVCAR-4 = tested on: OVCAR-4
Malme-3M = tested on: Malme-3M
HCC 2998 = tested on: HCC 2998
NCI-H23 = tested on: NCI-H23
EKVX = tested on: EKVX
SN12C = tested on: SN12C
SNB-75 = tested on: SNB-75
M14 = tested on: M14
DU-145 = tested on: DU-145
T47D = tested on: T47D
SF-295 = tested on: SF-295
PC-3 = tested on: PC-3
MCF7 = tested on: MCF7
MDA-MB-231 = tested on: MDA-MB-231
UO-31 = tested on: UO-31
RPMI-8226 = tested on: RPMI-8226
MOLT-4 = tested on: MOLT-4
SR = tested on: SR

Compound | GI50 (HL-60) | GI50 (HOP-92) | GI50 (OVCAR-4) | GI50 (Malme-3M) | GI50 (HCC 2998) | GI50 (NCI-H23) | GI50 (EKVX) | GI50 (SN12C) | GI50 (SNB-75) | GI50 (M14) | GI50 (DU-145) | GI50 (T47D) | GI50 (SF-295) | GI50 (PC-3) | GI50 (MCF7) | GI50 (MDA-MB-231) | GI50 (UO-31) | GI50 (RPMI-8226) | GI50 (MOLT-4) | GI50 (SR)
COc1ccc2nc3n(c2c1)CCc1cc(OC)c(OC)cc1-3 | 44.6 µM (inactive) | 56 µM (inactive) | 34.8 µM (inactive) | 91 µM (inactive) | 26 µM (inactive) | 40.1 µM (inactive) | 42.4 µM (inactive) | 63.1 µM (inactive) | 40.7 µM (inactive) | 39.9 µM (inactive) | 83.8 µM (inactive) | 34.6 µM (inactive) | 50.9 µM (inactive) | 39.4 µM (inactive) | 42.5 µM (inactive) | > 100 µM (inactive) | – | – | – | –
Clc1c(C(Cl)(Cl)Cl)nsc1N1CCCCC1 | 16.6 µM (inactive) | – | 25.6 µM (inactive) | 13.5 µM (inactive) | 22.2 µM (inactive) | 14 µM (inactive) | 29.9 µM (inactive) | 28 µM (inactive) | 29 µM (inactive) | 21 µM (inactive) | 28.4 µM (inactive) | – | 22.3 µM (inactive) | 31 µM (inactive) | 26.1 µM (inactive) | 23.8 µM (inactive) | 11.4 µM (inactive) | 12.6 µM (inactive) | 15.2 µM (inactive) | 16.1 µM (inactive)
Cc1c(-c2ccccc2)[nH]n(C2=NCCN2)c1=O | 88.5 µM (inactive) | > 100 µM (inactive) | > 100 µM (inactive) | 41 µM (inactive) | – | > 100 µM (inactive) | > 100 µM (inactive) | – | 30.4 µM (inactive) | > 100 µM (inactive) | – | > 100 µM (inactive) | > 100 µM (inactive) | > 100 µM (inactive) | > 100 µM (inactive) | > 100 µM (inactive) | 85.1 µM (inactive) | > 100 µM (inactive) | > 100 µM (inactive) | > 100 µM (inactive)
O=C(NCCCCCCCCNC(=O)c1cccc2ccccc12)c1cccc2ccccc12 | > 100 µM (inactive) | 4.34 µM (inactive) | 4.01 µM (inactive) | 44.8 µM (inactive) | > 95.7 µM (inactive) | 23.6 µM (inactive) | 19.5 µM (inactive) | 18.8 µM (inactive) | 4.61 µM (inactive) | 34.4 µM (inactive) | > 100 µM (inactive) | – | 12.4 µM (inactive) | > 100 µM (inactive) | 71.4 µM (inactive) | – | 6.3 µM (inactive) | > 100 µM (inactive) | > 100 µM (inactive) | > 100 µM (inactive)
Cc1cc2c3c(ccc4[nH]cc(c43)CN2c2ccc(NS(C)(=O)=O)cc2)n1 | 28.1 µM (inactive) | 24.5 µM (inactive) | > 100 µM (inactive) | – | 30.2 µM (inactive) | 20.8 µM (inactive) | 26.8 µM (inactive) | – | 16.9 µM (inactive) | > 100 µM (inactive) | 49.1 µM (inactive) | – | 51.9 µM (inactive) | > 100 µM (inactive) | 65 µM (inactive) | 22 µM (inactive) | 12.7 µM (inactive) | 13.5 µM (inactive) | 3.02 µM (inactive) | –
Nn1c(=S)[nH]nc(/C=C/c2c(O)ccc3ccccc23)c1=O | 0.203 µM (active) | – | 4.06 µM (inactive) | 12.2 µM (inactive) | 7.5 µM (inactive) | 3.24 µM (inactive) | 2.75 µM (inactive) | – | – | 5.71 µM (inactive) | 12.1 µM (inactive) | 3.97 µM (inactive) | 8.85 µM (inactive) | 11.1 µM (inactive) | 2.72 µM (inactive) | – | 6.35 µM (inactive) | 28.6 µM (inactive) | 4.29 µM (inactive) | 4.67 µM (inactive)
[N-]=[N+]=NC(c1ccccc1)(c1ccccc1)c1ccccc1 | 17.2 µM (inactive) | 17.1 µM (inactive) | 20.3 µM (inactive) | 14.6 µM (inactive) | 15.8 µM (inactive) | 16.5 µM (inactive) | 14.2 µM (inactive) | 16.7 µM (inactive) | 16.9 µM (inactive) | 18.4 µM (inactive) | 17.3 µM (inactive) | 16 µM (inactive) | 12.1 µM (inactive) | 15.2 µM (inactive) | 17.5 µM (inactive) | 16.5 µM (inactive) | 16 µM (inactive) | 19.3 µM (inactive) | 16.1 µM (inactive) | –
C=C(CN(C)C)C(=O)c1ccccc1OC | 3.23 µM (inactive) | 14.7 µM (inactive) | 20.6 µM (inactive) | 7.66 µM (inactive) | 34.6 µM (inactive) | 17.9 µM (inactive) | 25.8 µM (inactive) | 18.9 µM (inactive) | 27.2 µM (inactive) | 12 µM (inactive) | > 45 µM (inactive) | 15 µM (inactive) | > 56.9 µM (inactive) | 17.5 µM (inactive) | – | 14.4 µM (inactive) | 16.4 µM (inactive) | 5.28 µM (inactive) | 2.46 µM (inactive) | 10.2 µM (inactive)
CCOC(=O)c1cnc(-n2[nH]c3c(c2=O)CCCC3)[nH]c1=O | 28.1 µM (inactive) | 0.859 µM (active) | 57.5 µM (inactive) | 77.6 µM (inactive) | – | 72.8 µM (inactive) | 80.4 µM (inactive) | 52.5 µM (inactive) | – | 36.4 µM (inactive) | 57.9 µM (inactive) | > 100 µM (inactive) | 62.7 µM (inactive) | 57.4 µM (inactive) | – | 57.1 µM (inactive) | 54.6 µM (inactive) | 52.7 µM (inactive) | 43 µM (inactive) | 13.3 µM (inactive)
CCn1c(CCl)nc2c1C(=O)c1ccccc1C2=O | 2.43 µM (inactive) | 2.14 µM (inactive) | 1.66 µM (inactive) | 1.04 µM (active) | 1.56 µM (inactive) | 1.4 µM (inactive) | 2.46 µM (inactive) | 1.6 µM (inactive) | 1.58 µM (inactive) | 1.63 µM (inactive) | 2.67 µM (inactive) | 1.95 µM (inactive) | 1.88 µM (inactive) | 1.91 µM (inactive) | 1.87 µM (inactive) | – | – | 2.12 µM (inactive) | 0.356 µM (active) | 0.401 µM (active)
CN1COCc2cc3cc4c(cc3nc21)OCCO4 | – | 38.8 µM (inactive) | > 100 µM (inactive) | 30 µM (inactive) | > 100 µM (inactive) | – | > 100 µM (inactive) | > 100 µM (inactive) | > 100 µM (inactive) | > 100 µM (inactive) | – | – | > 100 µM (inactive) | 91.8 µM (inactive) | 21.2 µM (inactive) | > 100 µM (inactive) | – | 4.72 µM (inactive) | 11.5 µM (inactive) | –
CC(C)c1ccc2nc3ccc(C(=O)NCCN4CCN(c5ccccc5)CC4)cn3c(=O)c2c1 | – | – | > 100 µM (inactive) | 1.85 µM (inactive) | 11.1 µM (inactive) | 7.73 µM (inactive) | > 100 µM (inactive) | – | 1.89 µM (inactive) | 2.87 µM (inactive) | > 100 µM (inactive) | – | 2.22 µM (inactive) | 2.37 µM (inactive) | 10 µM (inactive) | > 100 µM (inactive) | 4.9 µM (inactive) | – | 1.87 µM (inactive) | 2.51 µM (inactive)
COc1ccc(CCc2ccccc2CC(=O)O)cc1 | > 100 µM (inactive) | > 100 µM (inactive) | > 100 µM (inactive) | > 100 µM (inactive) | > 100 µM (inactive) | > 100 µM (inactive) | > 100 µM (inactive) | > 100 µM (inactive) | > 100 µM (inactive) | > 100 µM (inactive) | – | – | > 100 µM (inactive) | – | – | – | > 100 µM (inactive) | > 100 µM (inactive) | > 100 µM (inactive) | > 100 µM (inactive)
O=c1[nH]c(NCc2cccnc2)nc2[nH]cnc12 | – | > 100 µM (inactive) | > 100 µM (inactive) | > 100 µM (inactive) | > 100 µM (inactive) | > 100 µM (inactive) | > 100 µM (inactive) | > 100 µM (inactive) | > 100 µM (inactive) | > 100 µM (inactive) | > 100 µM (inactive) | > 100 µM (inactive) | > 100 µM (inactive) | > 100 µM (inactive) | > 100 µM (inactive) | > 100 µM (inactive) | > 100 µM (inactive) | > 100 µM (inactive) | > 100 µM (inactive) | –
CC(C)C(C/C=C1\CC(CO)(COC(=O)c2ccccc2)OC1=O)C(C)C (stereo unspecified) | – | 13.4 µM (inactive) | 18.8 µM (inactive) | 16.8 µM (inactive) | 22.4 µM (inactive) | 20.2 µM (inactive) | 14.9 µM (inactive) | 17.2 µM (inactive) | 15.3 µM (inactive) | 14.8 µM (inactive) | – | 93.8 µM (inactive) | 14.5 µM (inactive) | 15.8 µM (inactive) | 20.9 µM (inactive) | 21.3 µM (inactive) | 17.4 µM (inactive) | – | 18.2 µM (inactive) | 32.2 µM (inactive)
CC(=O)CC(=O)NC=O | > 100 µM (inactive) | > 100 µM (inactive) | > 100 µM (inactive) | > 100 µM (inactive) | > 100 µM (inactive) | > 100 µM (inactive) | > 100 µM (inactive) | > 100 µM (inactive) | > 100 µM (inactive) | > 100 µM (inactive) | – | – | > 100 µM (inactive) | – | – | – | > 100 µM (inactive) | > 100 µM (inactive) | > 100 µM (inactive) | > 100 µM (inactive)
CCOc1cc2c(=O)oc3c(OC)ccc4ccc(c1OC)c2c43 | > 100 µM (inactive) | > 100 µM (inactive) | 58.7 µM (inactive) | > 100 µM (inactive) | 77.3 µM (inactive) | 73.5 µM (inactive) | > 100 µM (inactive) | > 100 µM (inactive) | 64.3 µM (inactive) | 45.3 µM (inactive) | > 100 µM (inactive) | > 100 µM (inactive) | 96.8 µM (inactive) | > 100 µM (inactive) | > 100 µM (inactive) | 14.5 µM (inactive) | > 100 µM (inactive) | – | > 100 µM (inactive) | –
